{
  "source": "patent US20110189095A1",
  "about": "“CRKL TARGETING PEPTIDES” (The Board of Regents, of the University of Texas System, priority 2008, published 2011)",
  "key": {"[1]": {"molecular_target": "CRKL binding to β1 integrin (Homo sapiens, UniProt P46109)", "sequence (P46109 whole entry)": "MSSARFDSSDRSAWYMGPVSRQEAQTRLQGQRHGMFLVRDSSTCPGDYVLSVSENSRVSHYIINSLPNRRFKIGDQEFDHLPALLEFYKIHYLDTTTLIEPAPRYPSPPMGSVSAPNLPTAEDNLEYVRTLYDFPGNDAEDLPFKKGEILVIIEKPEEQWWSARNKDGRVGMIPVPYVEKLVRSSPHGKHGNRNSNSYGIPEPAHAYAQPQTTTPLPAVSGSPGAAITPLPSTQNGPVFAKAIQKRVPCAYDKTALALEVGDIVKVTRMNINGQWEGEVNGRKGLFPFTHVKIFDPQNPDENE", "experiment": "Protein-protein interaction between CRKL and β1 integrin, inhibition assay", "method": "Phage binding assays on purified proteins were carried out as described (Giordano et al. 2001). Recombinant proteins were coated on microtiter wells as previous described (Cardo-Vila et al., 2003; Smith and Scott, 1993). Briefly, proteins were immobilized on microtiter wells overnight at 4° C. 50 μl of 1 μg/ml in PBS. Wells were washed twice with PBS, blocked with PBS containing 3% BSA for 2 hours at room temperature, and incubated with 10^9 T.U. wild-type tumor-homing phage ([…]; SEQ ID NO:1), scrambled phage ([…] (SEQ ID NO:26), […] (SEQ ID NO:27), […] (SEQ ID NO:29), […] (SEQ ID NO:30)), mutant phage ([…] (SEQ ID NO:25), […] (SEQ ID NO:28)), PSI-derived cyclic phage (CNSTFLQEGMPTSAC; SEQ ID NO:23) or fd-tet phage in 50 μl of PBS containing 1.5% BSA. After 1 hour at room temperature, wells were washed ten times with PBS and phage were recovered by bacterial infection. ELISA with polyclonal anti-CKRL confirmed the presence and concentration of the CKRL recombinant proteins on the wells. […] After 3 hours, binding of CKRL to integrins was detected by using an anti-CKRL antibody followed by an HRP-conjugated anti-rabbit IgG. […]"}, "[2]": {"tested_on": "KS1767 and DU145 human tumor xenografts and EF43-FGF4 mouse mammary carcinoma", "experiment": "In vivo homing of targeted or control phage in mice bearing different tumor types", "conditions": "systemic administration; KS1767, DU145 and EF43-FGF4 models", "method": "The tumor targeting attributes of CRKL-binding phage in tumor-bearing mice was evaluated next. First, phage constructs displaying either the selected CRKL-binding peptide or a panel of control (mutant or scrambled) peptides were designed and produced. Phage clones were tested in human tumor xenografts (Kaposi sarcoma KS1767 cells and prostate carcinoma DU145 cells) and an isogenic mouse tumor model (EF43-FGF4 mammary carcinoma).\nIn vivo targeting experiments with phage were performed as described (Hajitou et al., 2006; Arap et al., 1998; Arap et al., 2004; Kolonin et al., 2004; Marchio et al., 2004). Animals used in experiments were: Male nude mice bearing human DU145 xenografts or female nude mice with human Kaposi sarcoma KS1767-derived xenografts subcutaneously and immunocompetent Balb/c female mice bearing EF43-FGF4-derived breast tumors orthotopically in the mammary fat pad. Briefly, mice bearing tumors (˜8 mm) were anesthetized and injected intravenously via tail vein with 5×10^10 T.U. per mouse of wild-type […] (SEQ ID NO:1)-phage, or negative controls: fd-tet phage (insertless) and scrambled […] (SEQ ID NO:26)-phage, […] (SEQ ID NO:27)-phage, […] (SEQ ID NO:29)-phage, […] (SEQ ID NO:30)-phage or mutants […] (SEQ ID NO:25)-phage and […] (SEQ ID NO:28)-phage. Cohorts of two mice with size-matched tumors received each set of phage clones. After 24 hours, tumors were dissected from each mouse and phage recovered by bacterial infection and normalized by weight of tissue. The experiments were repeated twice for each tumor model. […] The fd phage served a negative control and the RGD-4C (Hajitou et al., 2006; Arap et al., 1998) served as a positive control. Only minimal background apoptosis (<1% of the total cells) were detected by TUNEL staining (Promega) on paraffin-embedded tumor tissue sections."}, "CRKL secretion": {"tested_on": "CRKL secretion", "experiment": "CRKL secretion inhibition study (immunoprecipitation from serum-free medium)", "assay_type": "cell-based", "conditions": "cells incubated with compound in serum-free medium for 9 hours", "method": "Cells were synchronized for 24-48 hours in RPMI serum-free medium followed by a spin and filtration through a 0.22 μm filter, and pre-absorbed to control antibodies. An equal volume of PBS was added to the recovered supernatant prior to immunoprecipitating with the appropriate antibodies. Brefeldin A, glybenclamide, and thapsigargin were used for secretion inhibition studies. Cells were incubated with the compounds in serum-free medium for 9 hours prior to immunoprecipitation with the appropriate antibodies. No detergents were used in the immunoprecipitation studies. By using the methodology described above, CRKL is found in a free soluble state and not in vesicles."}, "[3]": {"tested_on": "human prostate cancer xenografts (DU145-derived)", "experiment": "Therapy in tumor-bearing mice (tumor volume)", "assay_type": "in vivo, nude mice", "conditions": "equimolar amounts, systemically administered, vs untreated or vehicle", "description": "Finally, a pilot pre-clinical trial that included four cohorts of size-matched tumor-bearing mice was designed and conducted (FIG. 11). Animals received the following reagents: (i) the synthetic PSI domain-mimic peptide, (ii) the synthetic PSI domain-mimic peptide linked to a pro-apoptotic peptidomimetic (Arap et al., 2004; Ellerby et al., 1999; Kolonin et al., 2004; Zurita et al., 2004) in order to induce targeted apoptosis upon receptor-mediated internalization, (iii) the synthetic pro-apoptotic peptidomimetic alone, or (iv) vehicle alone. All peptides or peptidomimetics were administered at equimolar concentrations.\nDU145 tumor-bearing mice were size-matched and divided into individual cohorts (n=4 mice per group). The tumor-homing peptide […] (SEQ ID NO:1) was synthesized fused with the proapoptotic motif D(KLAKLAK)2. Unconjugated peptide […] (SEQ ID NO:1) or D(KLAKLAK)2 served as controls. The synthetic peptides were systemically administered and tumor volumes measured as described (Arap et al., 1998; Arap et al., 2004)."}, "rCRKL-SH3 (C) domain [4]": {"molecular_target": "T1, rCRKL-SH3 (C) domain (Homo sapiens, UniProt P46109)", "T1 construct": "cDNAs corresponding to each of the SH domains were PCR-amplified and cloned into the Sac I and Xho I restriction sites; His-tag; made in house; host or cells: E. coli BL21", "T1 sequence (P46109 235-296 limits assumed)": "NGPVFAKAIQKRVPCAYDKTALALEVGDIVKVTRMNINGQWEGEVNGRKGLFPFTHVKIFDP", "experiment": "Inhibition of rCRKL-SH3 (C) domain binding to coated tumor-homing peptide", "conditions": "inhibitor pre-incubated with rCRKL-SH3 (C)", "method": "(§1) Synthetic tumor-homing peptide ([…]; SEQ ID NO:1) or PSI-derived peptide (NSTFLQEGMPTSA; SEQ ID NO:23) were coated on microtiter plates followed by blocking, and washing. The following recombinant His-tag proteins were added to the coated plates: rCRKL, rCRKL-SH2 domain, rCRKL-SH3 (N) domain, and rCRKL-SH3 (C) domain. An unrelated control protein (α2-Heremans-Schmid glycoprotein; AHSG) served as a negative control. The mixtures were incubated, washed, and labeled with the appropriate antibodies. Secondary antibodies conjugated to horse-radish peroxidase (HRP) were added followed by adding TMB substrate (Calbiochem), and analyzed by an automated ELISA reader (Bio-Tek). To determine the inhibitory activity of the tumor-homing peptide, the PSI-derived peptide, or the phage clone displaying the corresponding tumor-homing peptide were incubated with the rCRKL-SH3 (C) domain. Unrelated cyclic peptide sequences and insertless phage (fd-tet) served as negative controls. The admixtures were incubated and added to wells coated with the tumor-homing peptide. After incubation, the wells were washed, labeled with the appropriate antibodies, and processed as above."}, "rCRKL-SH3 (N) domain": {"molecular_target": "T2, rCRKL-SH3 (N) domain (Homo sapiens, UniProt P46109)", "T2 construct": "cDNAs corresponding to each of the SH domains were PCR-amplified and cloned into the Sac I and Xho I restriction sites; His-tag; made in house; host or cells: E. coli BL21", "T2 sequence (P46109 123-183 limits assumed)": "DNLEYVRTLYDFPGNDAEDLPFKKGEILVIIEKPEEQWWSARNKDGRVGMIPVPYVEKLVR", "experiment": "Peptide binding assay with recombinant His-tag proteins (ELISA)", "conditions": "peptide coated on microtiter plates", "method": "as §1"}, "rCRKL-SH3 (C) domain [5]": {"molecular_target": "T1, rCRKL-SH3 (C) domain", "experiment": "Peptide binding assay with recombinant His-tag proteins (ELISA)", "conditions": "peptide coated on microtiter plates", "method": "as §1"}, "rCRKL": {"molecular_target": "T3, rCRKL (Homo sapiens, UniProt P46109)", "T3 construct": "The open reading frame of full-length CRKL cDNA (Invitrogen) was PCR-amplified and cloned in a pET28a (Novagen) expression vector; His-tag; made in house; host or cells: E. coli BL21", "T3 sequence (P46109 whole entry)": "as the sequence (P46109 whole entry) above", "experiment": "Peptide binding assay with recombinant His-tag proteins (ELISA)", "conditions": "peptide coated on microtiter plates", "method": "as §1"}, "DU145 cells": {"tested_on": "DU145 cells", "experiment": "Peptide internalization assay (WST-1 cell viability, annexin-V staining)", "assay_type": "cell-based, human", "method": "The internalization capability of the tumor-homing peptide fused through a glycinylglycine bridge to a pro-apoptotic sequence was tested as described Arap et al., 2004; Ellerby et al., 1999; Kolonin et al., 2004; Zurita et al., 2004). The conjugated tumor-homing peptide, […] (SEQ ID NO:67)-D(KLAKLAK)2 or the untargeted control peptide D(KLAKLAK)2 were synthesized and increasing equimolar peptide concentrations were added to the DU145 cells. Cell viability was assayed by the WST-1 reagent (Roche) and annexin-V staining for apoptosis (Zurita et al., 2004; Cardo-Vila et al., 2003). For tumor-homing phage localization studies, cells were incubated with 10^9 T.U. tumor-homing ([…]; SEQ ID NO:1) or a negative control (fd-tet) phage for 6 and 24 hours. Wells were washed with 20 mM glycine to remove non-specific cell surface bound phage and then fixed with 4% paraformaldehyde. The non-permeabilized cells were incubated with rabbit anti-fd bacteriophage antibody (Sigma) for 2 hours at room temperature followed by 1 hour incubation with Cy3-labeled anti-rabbit IgG antibody (Jackson ImmunoResearch). Cells were again fixed with 4% paraformaldehyde and mounted in the presence of DAPI (Vector Laboratories) and images were acquired with an Olympus fluorescence microscope."}},
  "note": "Ends that are not written are not given here.",
  "data": [
    {"molecule": "gst-PSI: recombinant gst fusion protein of the entire PSI domain of β1 integrin (CLKANAKSCGECIQAGPNCGWCTNSTFLQEGMPTSARCDDLEALKKKGC; cysteine pairing not given here; also: N-terminal GST fusion, not written)", "values": [
      {"measurement": "inhibition of CRKL binding to β1 integrin", "setting": "[1]; up to 800 ηm", "value": "concentration-dependent inhibition"},
      {"measurement": "IC50", "setting": "[1]; wells coated with α5β1 integrin", "value": 0.02, "unit": "µM"}
    ]},
    {"molecule": "YRCETDSPHEFHLWNTFCAM", "values": [
      {"measurement": "tumor homing / tumor targeting", "setting": "[2]", "value": "no tumor targeting activity"}
    ]},
    {"molecule": "YRCTLNSPAAAEDMTHECHA", "values": [
      {"measurement": "tumor homing / tumor targeting", "setting": "[2]", "value": "no tumor targeting activity"}
    ]},
    {"molecule": "COc1ccc(Cl)cc1C(=O)NCCc1ccc(S(=O)(=O)NC(=O)NC2CCCCC2)cc1", "note": "[glybenclamide]", "values": [
      {"measurement": "CRKL secretion / release", "setting": "CRKL secretion", "value": "does prevent"}
    ]},
    {"molecule": "YRCTLNSAFFWEDMTHECHA", "values": [
      {"measurement": "tumor homing / tumor targeting", "setting": "[2]", "value": "no tumor targeting"}
    ]},
    {"molecule": "YRECTDSPHEFHLWNTMCAF", "values": [
      {"measurement": "tumor homing / tumor targeting", "setting": "[2]", "value": "no tumor targeting"}
    ]},
    {"molecule": "C/C=C(/C)C(=O)O[C@H]1C(C)=C2[C@H]([C@@H]1OC(=O)CCCCCCC)[C@@](C)(OC(C)=O)C[C@H](OC(=O)CCC)[C@@]1(O)[C@H]2OC(=O)[C@@]1(C)O", "note": "[thapsigargin]", "values": [
      {"measurement": "CRKL secretion / release", "setting": "CRKL secretion", "value": "do not appear to inhibit"}
    ]},
    {"molecule": "D(KLAKLAK)2 [reference compound]", "values": [
      {"measurement": "tumor growth / tumor volume", "setting": "[3]", "value": "no differences in tumor volume"}
    ]},
    {"molecule": "YRCETDSPHEFHLWNTMCAF", "values": [
      {"measurement": "tumor homing / tumor targeting", "setting": "[2]", "value": "no tumor targeting activity"}
    ]},
    {"molecule": "NSTFLQEGMPTSA (listed as Homo sapiens) [synthetic peptide derived from the native PSI domain of β1 integrin, residues 50 to 62]", "values": [
      {"measurement": "inhibition of binding of the tumor-homing peptide to rCRKL-SH3 (C) domain", "setting": "rCRKL-SH3 (C) domain [4]", "value": "inhibited"},
      {"measurement": "binding to rCRKL-SH3 (N) domain", "setting": "rCRKL-SH3 (N) domain", "value": "bound"},
      {"measurement": "binding to rCRKL-SH3 (C) domain", "setting": "rCRKL-SH3 (C) domain [5]", "value": "bound"},
      {"measurement": "binding to rCRKL", "setting": "rCRKL", "value": "bound"}
    ]},
    {"molecule": "YRFCTSPFHEWHLENTDMCA", "values": [
      {"measurement": "tumor homing / tumor targeting", "setting": "[2]", "value": "no tumor targeting"}
    ]},
    {"molecule": "YRCTLNSPFFWEDMTHECHAGG (SEQ ID NO:67)-D(KLAKLAK)2", "values": [
      {"measurement": "programmed cell death (annexin-V staining)", "setting": "DU145 cells; DU145 cells", "value": "Programmed cell death was confirmed"},
      {"measurement": "internalization", "setting": "DU145 cells; DU145 cells, measured by cell viability and annexin-V", "value": "enables internalization"},
      {"measurement": "cell killing (cell viability, WST-1)", "setting": "DU145 cells; increasing equimolar concentrations, control D(KLAKLAK)2", "value": "Targeted cell killing relative to controls"},
      {"measurement": "tumor growth / tumor volume", "setting": "[3]", "value": "Markedly reduced tumor growth"},
      {"measurement": "tumor growth / tumor volume", "setting": "[3]; listed as targeted pro-apoptotic peptidomimetic", "value": "significantly inhibited"}
    ]},
    {"molecule": "C[C@H]1CCC/C=C/[C@@H]2C[C@H](O)C[C@H]2[C@H](O)/C=C/C(=O)O1", "note": "[brefeldin A]", "values": [
      {"measurement": "CRKL secretion / release", "setting": "CRKL secretion", "value": "do not appear to inhibit"}
    ]}
  ]
}
